Laboratory results: patent publication US20150141381A1, “TETRACYCLINE COMPOUNDS HAVING TARGET THERAPEUTIC ACTIVITIES” (Paratek Pharmaceuticals, Inc., priority 2001, published 2015)
Where two headings read alike, the source gives them in different places.

Experiments:
E. coli mL308 225 = experiment: In Vitro Anti-Bacterial Activity Assay (MIC), gram negative; format: cell-based; conditions: Escherichia coli, ML308225, 18 h, read-out: Antibiotic Activity Gram − (MIC)
S. aureus RN450 = experiment: In Vitro Anti-Bacterial Activity Assay (MIC), gram positive; format: cell-based; conditions: Staphylococcus aureus, RN450, 18 h, gram positive bacteria; read-out: Antibiotic Activity Gram + (MIC)

| Structure (SMILES) | MIC (E. coli mL308 225; gram negative bacteria) | MIC (S. aureus RN450) | MIC (E. coli mL308 225) |
| --- | --- | --- | --- |
| CN(C)c1cc(CNC(N)=O)c(O)c2c1C[C@H]1C[C@H]3[C@H](N(C)C)C(O)=C(C(N)=O)C(=O)[C@@]3(O)C(O)=C1C2=O | > 4 µg/mL | > 4 µg/mL | – |
| CN(C)c1cc(CNCC2CC2)c(O)c2c1C[C@H]1C[C@H]3[C@H](N(C)C)C(O)=C(C(N)=O)C(=O)[C@@]3(O)C(O)=C1C2=O | > 4 µg/mL | < 4 µg/mL | – |
| Cc1noc(C)c1S(=O)(=O)NCc1cc(N(C)C)c2c(c1O)C(=O)C1=C(O)[C@]3(O)C(=O)C(C(N)=O)=C(O)[C@@H](N(C)C)[C@@H]3C[C@@H]1C2 | > 4 µg/mL | < 4 µg/mL | – |
| CONCc1ccc(-c2cc(N(C)C)c3c(c2O)C(=O)C2=C(O)[C@]4(O)C(=O)C(C(N)=O)=C(O)[C@@H](N(C)C)[C@@H]4C[C@@H]2C3)[nH]1 | < 4 µg/mL | < 4 µg/mL | – |
| CN(C)c1cc(Cn2ccc(C=O)c2)c(O)c2c1C[C@H]1C[C@H]3[C@H](N(C)C)C(O)=C(C(N)=O)C(=O)[C@@]3(O)C(O)=C1C2=O | > 4 µg/mL | < 4 µg/mL | – |
| CCc1cc(CNC(=O)N2CCOCC2)c2c(c1O)C(=O)C1=C(O)[C@]3(O)C(=O)C(C(N)=O)=C(O)[C@@H](N(C)C)[C@@H]3C[C@@H]1C2 | > 4 µg/mL | > 4 µg/mL | – |
| COC(=O)c1ccc2c(c1O)C(=O)C1=C(O)[C@]3(O)C(=O)C(C(N)=O)=C(O)[C@@H](N(C)C)[C@@H]3[C@@H](O)[C@@H]1[C@H]2C | > 4 µg/mL | > 4 µg/mL | – |
| CN(C)c1cc(C(=O)N2CCOCC2)c(O)c2c1C[C@H]1C[C@H]3[C@H](N(C)C)C(O)=C(C(N)=O)C(=O)[C@@]3(O)C(O)=C1C2=O | > 4 µg/mL | > 4 µg/mL | – |
| CN(C)c1cc(CNC(=O)[C@@H]2CCCN2C)c(O)c2c1C[C@H]1C[C@H]3[C@H](N(C)C)C(O)=C(C(N)=O)C(=O)[C@@]3(O)C(O)=C1C2=O | > 4 µg/mL | < 4 µg/mL | – |
| C[C@H]1c2ccc(CN3CCCCC3)c(O)c2C(=O)C2=C(O)[C@]3(O)C(=O)C(C(N)=O)=C(O)[C@@H](N(C)C)[C@@H]3[C@@H](O)[C@@H]21 | < 4 µg/mL | < 4 µg/mL | – |
| CN(C)c1cc(NCc2cc(F)cc(F)c2)c(O)c2c1C[C@H]1C[C@H]3[C@H](N(C)C)C(O)=C(C(N)=O)C(=O)[C@@]3(O)C(O)=C1C2=O | > 4 µg/mL | > 4 µg/mL | – |
| CCCCOC(=O)c1ccc(O)c2c1C[C@H]1C[C@H]3[C@H](N(C)C)C(O)=C(C(N)=O)C(=O)[C@@]3(O)C(O)=C1C2=O | < 4 µg/mL | < 4 µg/mL | – |
| CN(C)c1cc(NCc2ccc(C#N)cc2)c(O)c2c1C[C@H]1C[C@H]3[C@H](N(C)C)C(O)=C(C(N)=O)C(=O)[C@@]3(O)C(O)=C1C2=O | > 4 µg/mL | > 4 µg/mL | – |
| COc1ccc(CNCCF)cc1-c1ccc(O)c2c1C[C@H]1C[C@H]3[C@H](N(C)C)C(O)=C(C(N)=O)C(=O)[C@@]3(O)C(O)=C1C2=O | – | < 4 µg/mL | > 4 µg/mL |
| CN(C)c1cc(CNC(=O)C(C)(C)C)c(O)c2c1C[C@H]1C[C@H]3[C@H](N(C)C)C(O)=C(C(N)=O)C(=O)[C@@]3(O)C(O)=C1C2=O | > 4 µg/mL | < 4 µg/mL | – |
| CC(=O)NCc1cc(N(C)C)c2c(c1O)C(=O)C1=C(O)[C@]3(O)C(=O)C(C(N)=O)=C(O)[C@@H](N(C)C)[C@@H]3C[C@@H]1C2 | > 4 µg/mL | < 4 µg/mL | – |
| CN(C)c1cc(CNc2nc(-c3ccc(F)cc3)co2)c(O)c2c1C[C@H]1C[C@H]3[C@H](N(C)C)C(O)=C(C(N)=O)C(=O)[C@@]3(O)C(O)=C1C2=O | > 4 µg/mL | > 4 µg/mL | – |
| CC(CF)Nc1ccc(-c2ccc(O)c3c2C[C@H]2C[C@H]4[C@H](N(C)C)C(O)=C(C(N)=O)C(=O)[C@@]4(O)C(O)=C2C3=O)cc1 (stereo partly drawn) | > 4 µg/mL | < 4 µg/mL | – |
| CN(C)c1cc(CNc2nc(C(F)(F)F)co2)c(O)c2c1C[C@H]1C[C@H]3[C@H](N(C)C)C(O)=C(C(N)=O)C(=O)[C@@]3(O)C(O)=C1C2=O | < 4 µg/mL | < 4 µg/mL | – |
| CN(C)c1cc(CNCc2cc(F)c(F)c(F)c2)c(O)c2c1C[C@H]1C[C@H]3[C@H](N(C)C)C(O)=C(C(N)=O)C(=O)[C@@]3(O)C(O)=C1C2=O | < 4 µg/mL | < 4 µg/mL | – |
| CN(C)c1cc(CNCc2ccc(C#N)cc2)c(O)c2c1C[C@H]1C[C@H]3[C@H](N(C)C)C(O)=C(C(N)=O)C(=O)[C@@]3(O)C(O)=C1C2=O | > 4 µg/mL | < 4 µg/mL | – |
| CN(C)c1cc(CNC(CF)CF)c(O)c2c1C[C@H]1C[C@H]3[C@H](N(C)C)C(O)=C(C(N)=O)C(=O)[C@@]3(O)C(O)=C1C2=O | – | < 4 µg/mL | > 4 µg/mL |
| CN(C)[C@@H]1C(O)=C(C(N)=O)C(=O)[C@@]2(O)C(O)=C3C(=O)c4c(O)ccc(-c5ccc(CNCCF)cc5)c4C[C@H]3C[C@@H]12 | – | < 4 µg/mL | < 4 µg/mL |
| COc1ccc(CNc2cc(N(C)C)c3c(c2O)C(=O)C2=C(O)[C@]4(O)C(=O)C(C(N)=O)=C(O)[C@@H](N(C)C)[C@@H]4C[C@@H]2C3)cc1O | > 4 µg/mL | > 4 µg/mL | – |
